Assay results published in paper PMC6680850, “Anion Inhibition Profile of the β-Carbonic Anhydrase from the Opportunist Pathogenic Fungus Malassezia restricta Involved in Dandruff and Seborrheic Dermatitis” (Metabolites, 2019).
Counter-ions that a name gives are not always drawn. Like-named read-outs stand apart in the source and are kept apart here.

Key:
[1] = target: β-CA from Malassezia restricta (MreCA) (Malassezia restricta, UniProt A0A3G2S4B9); experiment: biochemical; assay type: biochemical
[2] = target: β-CA from Malassezia globosa (MgCA); parameters: method as in PMID 29152053; conditions: cited from earlier work
[3] = target: hCA I; conditions: cited from earlier work
[4] = test system: hCA II; conditions: cited from earlier work; for Ki: pH 8.3
[5] = CO2 hydration reaction, 20 °C, pH 8.3, stopped flow, ref [31]

Chain of β-CA from Malassezia restricta (MreCA) (A0A3G2S4B9 1-238): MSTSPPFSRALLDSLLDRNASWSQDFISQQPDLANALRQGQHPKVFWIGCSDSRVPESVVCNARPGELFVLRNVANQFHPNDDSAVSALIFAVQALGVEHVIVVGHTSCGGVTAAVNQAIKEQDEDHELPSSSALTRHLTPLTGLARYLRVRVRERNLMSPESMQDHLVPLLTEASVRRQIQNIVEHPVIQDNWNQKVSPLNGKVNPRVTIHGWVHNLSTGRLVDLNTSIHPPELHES

F[P-](F)(F)(F)(F)F [PF6^−, esafluorofosfato]
Ki ([1]; pH 8.3, read-out: KI MreCA): 3.9 mM
Ki [2, 5]: 6.47 mM

[O]=[Ru](=[O])(=[O])=[O] [RuO4^−, perruthenate]
Ki ([1]; pH 8.3, read-out: KI MreCA): 7.4 mM
Ki [2, 5]: 8.82 mM

S=C(S)S [CS3^2−, trithiocarbonate]
Ki ([1]; pH 8.3, read-out: KI MreCA): 0.92 mM
Ki [3, 5]: 0.0087 mM
Ki [2, 5]: 1.77 mM

O=[N+]([O-])O [NO3^−, nitrate]
Ki ([1]; pH 8.3, read-out: KI MreCA): 9 mM
Ki [3, 5]: 7 mM
Ki [2, 5]: 8.13 mM

O=C(O)O [HCO3^−, bicarbonate]
Ki ([1]; pH 8.3, read-out: KI MreCA): 0.86 mM
Ki ([2]; pH 8.3): 0.59 mM

I [I^−, iodide]
Ki ([1]; pH 8.3, read-out: KI MreCA): 8.6 mM
Ki [3, 5]: 0.3 mM
Ki [2, 5]: 8.73 mM

[N-]=[N+]=[N-] [N3^−, azide]
Ki ([1]; pH 8.3, read-out: KI MreCA): > 50 mM
inhibition of hCA II in words [4]: well inhibited
Ki ([2]; pH 8.3): 45.2 mM

O=S(=O)(O)OOS(=O)(=O)O [S2O8^2−, peroxydisulfate]
Ki ([1]; pH 8.3, read-out: KI MreCA): > 50 mM
Ki [2, 5]: > 100 mM

O=[Te](=O)(O)O [TeO4^2−, tellurate]
Ki ([1]; pH 8.3, read-out: KI MreCA): 0.56 mM
Ki ([3]; pH 8.3): 0.66 mM
Ki ([2]; pH 8.3): 5.75 mM

[O]=[Re](=[O])(=[O])[OH] [ReO4^−, perrhenate]
Ki ([1]; pH 8.3, read-out: KI MreCA): > 50 mM
Ki [2, 5]: 16.7 mM

[O-][Cl+3]([O-])([O-])O [ClO4^−, perchlorate]
Ki ([1]; pH 8.3, read-out: KI MreCA): 9.2 mM
Ki ([2]; pH 8.3): > 100 mM

[O]=[Sn]([OH])[OH] [SnO3^2−, stannate]
Ki ([1]; pH 8.3, read-out: KI MreCA): 0.56 mM
Ki ([2]; pH 8.3): 5.07 mM

Cl [Cl^−, chloride]
Ki ([1]; pH 8.3, read-out: KI MreCA): > 50 mM
Ki ([3]; pH 8.3): 6 mM
Ki ([2]; pH 8.3): 7.98 mM

N#CO [CNO^−, cyanate]
Ki ([1]; pH 8.3, read-out: KI MreCA): > 50 mM
Ki ([2]; pH 8.3): 6.81 mM

O=NO [NO2^−, nitrite]
Ki ([1]; pH 8.3, read-out: KI MreCA): > 50 mM
Ki ([2]; pH 8.3): 7.56 mM

[Br-].[K+] [Br^−, bromide]
Ki ([1]; pH 8.3, read-out: KI MreCA): > 50 mM
Ki ([3]; pH 8.3): 4 mM
Ki [4]: 63 mM
Ki ([2]; pH 8.3): 18.6 mM

O=P(O)(O)OP(=O)(O)O [P2O7^2−, pyrophosphate]
Ki ([1]; pH 8.3, read-out: KI MreCA): > 50 mM
Ki [3, 5]: 25.8 mM
Ki [2, 5]: 6.03 mM

O=[Se](=O)(O)O [SeO4^2−]
Ki ([1]; pH 8.3, read-out: KI MreCA): 1.7 mM
Ki ([2]; pH 8.3): 7.41 mM

CCN(CC)C(=S)S [Et2NCS2^−, diethyldithiocarbamate]
Ki [1]: 0.075 mM
Ki [3, 5]: 0.00079 mM
Ki [2, 5]: 0.3 mM

[O]=[V]([OH])([OH])[O][V](=[O])([OH])[OH] [V2O7^2−, divanadate]
Ki ([1]; pH 8.3, read-out: KI MreCA): > 50 mM
Ki [3, 5]: 0.54 mM
Ki [2, 5]: 6.89 mM

N#C[SeH] [SeCN^−, selenocyanate]
Ki ([1]; pH 8.3, read-out: KI MreCA): 0.65 mM
Ki ([3]; pH 8.3): 0.085 mM
Ki ([2]; pH 8.3): 1.73 mM

osmate [OsO5^2−]
Ki ([1]; pH 8.3, read-out: KI MreCA): 8.5 mM
Ki ([2]; pH 8.3): 6.16 mM

O=[As](O)(O)c1ccccc1 [PhAsO3H2, phenylarsonic acid]
Ki ([3]; pH 8.3): 31.7 mM
Ki [4]: 49.2 mM
Ki ([2]; pH 8.3): 0.09 mM

N#CS [SCN^−, thiocyanate]
Ki ([1]; pH 8.3, read-out: KI MreCA): > 50 mM
Ki ([2]; pH 8.3): 8.39 mM

OB1OB2OB(O)OB(O1)O2 [B4O7^2−, tetraborate]
Ki ([1]; pH 8.3, read-out: KI MreCA): 0.4 mM
Ki ([2]; pH 8.3): 8.45 mM

O=S(=O)(O)C(F)(F)F [CF3SO3^−, trifalate]
Ki ([1]; pH 8.3, read-out: KI MreCA): 4.5 mM
Ki [2, 5]: 2.28 mM

OB(O)c1ccccc1 [PhB(OH)2, phenylboronic acid]
Ki [1]: 8.7 mM
inhibition of hCA I in words [3]: not well inhibited
Ki ([3]; pH 8.3): 58.6 mM
Ki ([2]; pH 8.3): 0.089 mM

O=S(=O)(O)O [SO4^2−, sulfate]
Ki ([2]; pH 8.3): 19.5 mM

O=S(O)O [HSO3^−, bisulfite]
Ki ([1]; pH 8.3, read-out: KI MreCA): > 50 mM
Ki [3, 5]: 18 mM
Ki [2, 5]: > 100 mM

F [F^−, fluoride]
Ki ([1]; pH 8.3, read-out: KI MreCA): > 50 mM
Ki ([2]; pH 8.3): 7.13 mM

NS(=O)(=O)O [NH2SO3H, sulfamic acid]
Ki ([1]; pH 8.3, read-out: KI MreCA): 7.7 mM
Ki [3, 5]: 0.021 mM
Ki [2, 5]: 0.083 mM

O=C(O)O [CO3^2, carbonate]
Ki ([1]; pH 8.3, read-out: KI MreCA): > 50 mM
Ki ([2]; pH 8.3): > 100 mM

NS(N)(=O)=O [Inhibitor H2NSO2NH2, sulfamide]
Ki ([1]; pH 8.3, read-out: KI MreCA): 0.72 mM
Ki [2, 5]: 0.094 mM

O=S(=O)(O)NS(=O)(=O)O [NH(SO3)2^2−, iminodisulfite]
Ki ([1]; pH 8.3, read-out: KI MreCA): > 50 mM
Ki [3, 5]: 0.31 mM
Ki [2, 5]: 21.4 mM
